Measurements taken from PubChem BioAssay (NCI).
Several values for one entry are separate records, joined by “and”; a condition that tells them apart may be missing. Equal entries are not always repeated.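 Method: 48-hour compound exposure of cells in 96-well plates, five concentrations, linear interpolation of endpoints. Here, GI50 denotes the concentration required for 50% inhibition of growth. TGI denotes the concentration required for complete inhibition of growth.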

Columns and labels:
Experiment in all cases: DTP human tumour cell line panel, 48 h
NCI-H226 lung = system: NCI-H226 lung
SNB-75 CNS = system: SNB-75 CNS
HT29 colon = system: HT29 colon
TK-10 renal = system: TK-10 renal
U251 CNS = system: U251 CNS
HCT-116 colon = system: HCT-116 colon
OVCAR-8 ovarian = system: OVCAR-8 ovarian
SK-OV-3 ovarian = system: SK-OV-3 ovarian
SW-620 colon = system: SW-620 colon
SN12C renal = system: SN12C renal

| SMILES | GI50 (NCI-H226 lung) | TGI (NCI-H226 lung) | GI50 (SNB-75 CNS) | TGI (SNB-75 CNS) | GI50 (HT29 colon) | TGI (HT29 colon) | GI50 (TK-10 renal) | TGI (TK-10 renal) | GI50 (U251 CNS) | TGI (U251 CNS) | GI50 (HCT-116 colon) | TGI (HCT-116 colon) | GI50 (OVCAR-8 ovarian) | TGI (OVCAR-8 ovarian) | GI50 (SK-OV-3 ovarian) | TGI (SK-OV-3 ovarian) | GI50 (SW-620 colon) | TGI (SW-620 colon) | GI50 (SN12C renal) | TGI (SN12C renal) |
| --- | --- | --- | --- | --- | --- | --- | --- | --- | --- | --- | --- | --- | --- | --- | --- | --- | --- | --- | --- | --- |
| CSc1ccc2c(c1)C(N1CCN(C)CC1)Cc1ccccc1S2 (stereo not given) | 1.8 µM | 24.9 µM and 3.94 µM | 1.49 µM | 3.15 µM and 3.87 µM | 1.8 µM | 6.84 µM and 3.65 µM | 1.84 µM | 12.8 µM and 3.41 µM | 1.53 µM | 18.6 µM and 2.95 µM | 1.98 µM | 16 µM and 4.03 µM | 2.07 µM | 22.8 µM and 5.35 µM | 2.01 µM | 27.3 µM and 4.25 µM | 1.69 µM | 20.6 µM and 3.42 µM | 2.81 µM | 18.9 µM and 10.8 µM |
| O=C(COc1cccc(/C=C2\CSc3ccccc3C2=O)c1)Nc1nccs1 | 13.1 µM | 30.6 µM | 1.13 µM | 12.5 µM | 1.85 µM | 3.43 µM | 2.25 µM | 4.89 µM | 1.82 µM | 3.21 µM | 1.6 µM | 2.96 µM | 3.08 µM | 10.4 µM | 14.6 µM | 27.7 µM | 1.95 µM | 4.52 µM | 1.76 µM | 4.46 µM |
| Cn1ncc(Cl)c1-c1cc(C(=O)N[C@H](CN)Cc2ccc(F)c(F)c2)oc1Cl | 5.91 µM and 2.29 µM | 24.7 µM and > 10 µM | 0.0508 µM and 0.027 µM | 1.4 µM and 0.846 µM | 1.15 µM and 0.346 µM | 15 µM and > 10 µM | 0.961 µM and 0.203 µM | 8.74 µM and 3.92 µM | 0.289 µM and 0.171 µM | 13.5 µM and > 9.51 µM | 1.67 µM and 1.76 µM | 8.09 µM and > 6.83 µM | 9.13 µM and 4.99 µM | 23.7 µM and > 10 µM | 0.232 µM and 0.259 µM | 3.75 µM and 5.04 µM | 7.82 µM and 4.1 µM | 21.8 µM and > 10 µM | 3.48 µM and 1.69 µM | 17.4 µM and > 10 µM |
| C=C1C(=O)OC2/C=C(/C)C(OC(C)=O)C/C=C(\C)C(OC(=O)C3(C)OC3C)C(O)C12 (stereo not given) |  | > 100 µM |  | > 100 µM |  | > 100 µM |  | > 100 µM |  | > 100 µM |  | > 100 µM |  | > 100 µM |  | > 100 µM |  | > 100 µM |  | > 100 µM |
| COC(=O)c1ccc(NC(=O)Oc2ccc(N(CCCl)CCCl)cc2)cc1 | 12.1 µM | 50.6 µM | 6.16 µM | 54.5 µM | 16.5 µM | > 100 µM | 21.6 µM | 58.9 µM | 3.09 µM | 41.4 µM | 11.2 µM | > 100 µM | 4.34 µM | 84.6 µM | 4.41 µM | 29.5 µM | 4.89 µM | > 100 µM | 2.97 µM | 94.1 µM |
| N=c1c2c(=N)n3c(nc2nc2n1-c1ccccc1Sc1ccccc1-2)sc1cc(Cl)ccc13 | 1.73 µM | 16.8 µM | 1.83 µM | 65.4 µM | 3.43 µM | > 100 µM | 3.64 µM | > 100 µM | 1.84 µM | 6.79 µM | 1.86 µM | > 100 µM | 3.1 µM | 67.9 µM | 4.42 µM | 37 µM | 3.14 µM | 71.1 µM | 2.33 µM | 32.6 µM |
| O=[N+]([O-])c1cccc(C2CC(c3ccccc3)=Nc3ccccc3S2)c1 (stereo not given) | 72.4 µM | > 100 µM | 9.53 µM | > 100 µM | 8.25 µM | 24.3 µM | 22.1 µM | 42.2 µM | 8.48 µM | 21.2 µM | 2.94 µM | 9 µM | 15.5 µM | 39.6 µM | 34.9 µM | > 100 µM | 3.03 µM | 12 µM | 13.4 µM | 26.8 µM |
| COc1cc2cc(Oc3ccc(NC(=O)Nc4ccc(Cl)c(Cl)c4)cc3)c(C)nc2cc1OC | 3.12 µM | 8.68 µM | 2.33 µM | 8.28 µM | 2.34 µM | 4.89 µM | 3.46 µM | 9.18 µM | 2.19 µM | 7.26 µM | 2.26 µM | 10.5 µM | 3.54 µM | 12.9 µM | 7.56 µM | 26.4 µM | 4.24 µM | 15.6 µM | 3.39 µM | 20.5 µM |
| COC(=O)C=Cc1ccc2nncnc2c1 (mixture of isomers) |  | > 100 µM |  | 55.1 µM |  | > 100 µM |  | > 100 µM |  | > 100 µM |  | > 100 µM |  | > 100 µM |  | > 100 µM |  | > 100 µM |  | > 100 µM |
| CC[n+]1c(/C=C/C=C2\N(C)c3ccccc3C2(C)C)sc2ccccc21 | 4.55 µM | 12.2 µM | 3.7 µM | 7.5 µM | 4.74 µM | 9.74 µM | 5.06 µM | 13.2 µM | 3.85 µM | 7.61 µM | 4.15 µM | 8.16 µM | 4.31 µM | 8.54 µM | 5.71 µM | 13.9 µM | 4.19 µM | 8.27 µM | 4.16 µM | 8 µM |
| COc1ccc(/C(C#N)=C2C=C/C(=N/O)c3ccccc3\2)cc1 | 3.71 µM | 17 µM | 0.259 µM | 11.5 µM | 0.705 µM | 4.53 µM | 11.3 µM | 28 µM | 0.446 µM | 15.1 µM | 0.328 µM | 11 µM | 0.327 µM | 13.1 µM | 0.301 µM | 3.4 µM | 0.262 µM | 14.4 µM | 0.418 µM | 13.5 µM |
| O=S(=O)(c1cnccc1N1CCN(CCO)CC1)N1CCCC1 |  | > 100 µM |  | > 100 µM |  | > 100 µM |  | > 100 µM |  | > 100 µM |  | > 100 µM |  | > 100 µM |  | > 100 µM |  | > 100 µM |  | > 100 µM |
| COC(=O)[C@H]1CCCN1C(=O)[C@H]1CCCN1C(=O)[C@H](Cc1c[nH]c2ccccc12)NC(=S)Nc1cc(C(F)(F)F)cc(C(F)(F)F)c1 | 9.63 µM | > 100 µM | 1.45 µM | > 100 µM | 2.95 µM | 8.72 µM | 12.7 µM | > 100 µM | 4.21 µM | 61.9 µM | 4.27 µM | > 100 µM | 7.01 µM | > 100 µM | 92.7 µM | > 100 µM | 9.18 µM | > 100 µM | 7.32 µM | > 100 µM |
